Data: article PMC11286609, “In vitro and in vivo analyses of eFAP: a novel FAP-targeting small molecule for radionuclide theranostics and other oncological interventions” (EJNMMI Radiopharmacy and Chemistry, 2024)

Experiments:
[1] = Stability in human serum at 37 °C (radio-HPLC / LC-MS); assay type: in vitro ADME; conditions: for Stability (% ± SD) Human serum 1 h / Stability (% ± SD) Human serum 4 h / Stability (% ± SD) Human serum 24 h: % intact labeled ligand, 37 °C; for degradation: human serum (HS), up to 24 h of incubation
Protocol: (§1) For the stability assessment of eFAP-6, [^111In]In-eFAP-6 or [^177Lu]Lu-eFAP-6 (~ 3–7 MBq, 20 µL) was mixed with 180 µL of PBS (0.01 M, pH 7.4) and incubated at 37 °C for up to 24 h. A sample of the PBS solution was directly injected on the radio-HPLC at 1, 4, and 24 h after incubation. Additionally, [^111In]In-eFAP-6 and [^177Lu]Lu-eFAP-6 (5–15 MBq, 50 µL) were incubated with 350 µL of commercially acquired mouse or human serum (Biolegend; San Diego, CA, USA) at 37 °C for up to 24 h. Following 1, 4, and 24 h of incubation, 50 µL of the solution were mixed with 50 µL of acetonitrile in an Eppendorf tube, and centrifuged at 5000× g for 20 min. The supernatant was then analyzed by radio-HPLC. Stability studies of eFAP-7 were performed by incubation of eFAP-7 (50 µL, 10^− 4 M) in 450 µL PBS or serum at 37 °C for up to 24 h. After 1, 4, and 24 h of incubation, 50 µL of the PBS incubation solution were directly analyzed by liquid chromatography-mass spectrometry (LC-MS), while 50 µL of the serum solution was mixed with 50 µL of acetonitrile in an Eppendorf tube, and centrifuged at 5000× g for 20 min, followed by LC-MS analyses.

[2] = Stability in mouse serum at 37 °C (radio-HPLC / LC-MS); assay type: in vitro ADME; conditions: for Stability (% ± SD) Mouse serum 1 h / Stability (% ± SD) Mouse serum 4 h / Stability (% ± SD) Mouse serum 24 h: % intact labeled ligand, 37 °C; for degradation: mouse serum (MS), up to 24 h of incubation
Protocol: as §1

[3] = LogD7.4 shake-flask method (n-octanol/PBS); assay type: physicochemical; conditions: n-octanol/PBS pH 7.4, shake-flask
Protocol: The distribution coefficients (LogD7.4) were determined using a shake-flask method, in which 2 µL (~ 0.5 MBq) of [^111In]In-eFAP-6 or 10 µL of eFAP-7 (10^− 4 M) was added to an Eppendorf tube containing 1 mL of PBS (0.01 M, pH 7.4) and n-octanol (v/v, 1:1). After vigorous vortexing, the solution was centrifuged at 2500× g for 15 min for phase separation. For radiolabeled eFAP-6, samples (3 × 10 µL) of the octanol and aqueous phases were taken out and measured in a 1480 Wizard automatic γ-counter (PerkinElmer; Groningen, The Netherlands). LogD7.4 values were calculated by using the following equation: LogD7.4 = log [(counts in octanol phase)/(counts in aqueous phase)]. For eFAP-7, samples (50 µL) of the octanol and aqueous phases were taken out and measured by LC-MS. LogD7.4 values were calculated by using the following equation: LogD7.4 = log [(area in octanol phase)/(area in aqueous phase)].

[4] = Stability in PBS at 37 °C (radio-HPLC / LC-MS); assay type: physicochemical; conditions: for Stability (% ± SD) PBS 1 h / Stability (% ± SD) PBS 4 h / Stability (% ± SD) PBS 24 h: % intact labeled ligand, 37 °C; for degradation: up to 24 h of incubation
Protocol: as §1

HT1080-huFAP cells = assay: Radiotracer uptake assay in FAP-expressing cells; assay type: cell-based, human
Protocol: Cell experiments were performed with the human sarcoma HT1080 cell line, stably transduced with human FAP (HT1080-huFAP) which were kindly provided by Prof. Dr. Uwe Haberkorn from the University of Heidelberg. The wild type HT1080 (ATTC), hereafter HT080-WT, was used as a negative control. Additionally, the pancreatic stellate cells PS-1, obtained from Queen Mary University, were used as an endogenously FAP expressing cell line. HT1080-huFAP and HT1080-WT cells were cultured in DMEM Glutamax© (Gibco; Breda, The Netherlands) and the PS-1 cells were cultured in RPMI (Gibco). Both media were supplemented with 10% FBS (Gibco), 100 UI/mL penicillin, and 100 µg/mL streptomycin (Merck Life Science NV; Amsterdam, The Netherlands). All cell lines were regularly passaged at 80% confluence and cultured at 37 °C, 5% CO2.
In vitro displacement studies of eFAP-6 and eFAP-7, as well as specificity and uptake assays, were performed using HT0180-huFAP cells. One day prior to the assay 100,000 cells were seeded in a 12-well plate in triplicate. […] For the uptake assay, the cells were incubated with 1 nM [^111In]In-eFAP-6 or [^111In]In-FAPI-46 for different time points (5–120 min) in the presence and absence of 1 mM UAMC-1110 to determine the specificity of^111 radiotracer binding. In both assays, the cells were washed twice with PBS after incubation and were subsequently lysed using 1 M NaOH for 20 min. The cell lysates were collected and radioactivity was measured in a γ-counter (PerkinElmer), simultaneously with 100 µL of the radioactive incubation medium as a standard. Cells in separate wells were collected with Trypsin-EDTA (Gibco) for counting by the automated Countess II cell counter (Thermo Fisher Scientific; Bleiswijk, The Netherlands). Uptake was expressed as percentage added activity per 200,000 cells (% AA/200,000 cells), and specific uptake was corrected by subtracting the uptake measured in the block wells.

[5] = tested on: HT1080-huFAP and HT1080-WT tumor-bearing mice; assay: Ex vivo biodistribution study in tumor-bearing mice; conditions: for Biodistribution Bone: femur; for Biodistribution Bone / Biodistribution Blood / Biodistribution Cecum / Biodistribution Colon / Biodistribution Heart / Biodistribution Kidneys / Biodistribution Liver / Biodistribution Lungs / Biodistribution Muscle / Biodistribution Pancreas / Biodistribution Salivary glands / Biodistribution Small intestines / Biodistribution Stomach / Biodistribution Tumor HT1080-WT / Biodistribution Tumor HT1080-huFAP: i.v., 2.6 MBq/200 pmol; for Biodistribution GI Tract: stomach, small intestines, cecum and colon combined
Excerpt: All animal experiments were approved by the Erasmus MC Animal Welfare Committee and were in accordance with European law. Five-week-old male NMRI-Foxn1 nu/nu mice (Janvier; Le Genest-Saint-Isle, France) were housed in individually ventilated cages with a maximum of three mice per cage. After one week of acclimatization, mice were subcutaneously inoculated with HT1080-huFAP on the right shoulder and HT1080-WT on the left shoulder (2.5 × 10^6 cells in Hank’s Balanced Salt Solution (Gibco)). Tumors were allowed to grow for 10 days, resulting in tumor sizes of 537 ± 269 mm^3 and 305 ± 190 mm^3 for HT1080-huFAP and HT1080-WT, respectively, at the start of the experiment. The animals received 200 µL of [^177Lu]Lu-eFAP-6 (n=3/4 per group) or [^177Lu]Lu-FAPI-46 (n=3/4 per group) (2.6 MBq/200 pmol) by intravenous injection through the tail vein, andat 1, 4, and 24 h p.i. biodistribution studies were performed. Blood was collected by orbital puncture under isoflurane/O2 anesthesia, immediately followed by cervical dislocation. Hereafter the two tumor xenografts, pancreas, liver, GI-tract (stomach, small intestine, cecum, colon), kidneys (left and right), lungs, heart, salivary glands, muscle, and bone (femur), were collected, weighed, and measured in a y-counter (PerkinElmer), alongside 10 µL of the injected activity as standard. The results are expressed as the percentage injected dose per gram (% ID/g).
All statistical analyses were performed with GraphPad Prism version 9.0 (San Diego, California USA). All IC50 values were determined using a non-linear regression Log(inhibitor) vs. response analysis with variable slope (four parameters). For the in vivo results outliers were identified by a ROUT test (Q = 1%) and excluded. Next, a two-tailed student’s t-test was performed (*p < 0.05, **p < 0.01, ***p < 0.001). All experiments were performed in triplicate and repeated at least three times.

## N#C[C@@H]1CC(F)(F)CN1C(=O)CNC(=O)c1ccnc2c(OCCCNC(=O)CN3CCN(CC(=O)[O-])CCN(CC(=O)[O-])CCN(CC(=O)[O-])CC3)cccc12.[111In+3] [[^111In]In-eFAP-6]
[1]
  Stability (% ± SD) Human serum 1 h: 91.2 ± 0.1%
  Stability (% ± SD) Human serum 4 h: 91.3 ± 0.7%
  Stability (% ± SD) Human serum 24 h: 90.4 ± 0.8%
  degradation: less than 10%
[2]
  Stability (% ± SD) Mouse serum 1 h: 92.1 ± 1.2%
  Stability (% ± SD) Mouse serum 4 h: 92.1 ± 1.4%
  Stability (% ± SD) Mouse serum 24 h: 91.0 ± 0.9%
  degradation: less than 10%
[3]
  LogD7.4: -3.90 ± 0.03
[4]
  Stability (% ± SD) PBS 1 h: 93.2 ± 0.5%
  Stability (% ± SD) PBS 4 h: 93.1 ± 0.6%
  Stability (% ± SD) PBS 24 h: 92.3 ± 0.6%
  degradation: less than 10%
HT1080-huFAP cells; 1 nM radiotracer, 5–120 min
  incubation time at peak uptake: 15 min
  peak uptake: 20.8 % AA/200,000 cells
HT1080-huFAP cells; 1 mM UAMC-1110, 45 min
  uptake on co-incubation with an excess of UAMC-1110 (block): negligible uptake

## N#C[C@@H]1CC(F)(F)CN1C(=O)CNC(=O)c1ccnc2c(OCCCNC(=O)CN3CCN(CC(=O)[O-])CCN(CC(=O)[O-])CCN(CC(=O)[O-])CC3)cccc12.[177Lu+3] [[^177Lu]Lu-eFAP-6]
[1]
  Stability (% ± SD) Human serum 1 h: 99.5 ± 0.0%
  Stability (% ± SD) Human serum 4 h: 99.5 ± 0.0%
  Stability (% ± SD) Human serum 24 h: 98.1 ± 0.3%
  degradation: less than 5%
[2]
  Stability (% ± SD) Mouse serum 1 h: 99.3 ± 1.2%
  Stability (% ± SD) Mouse serum 4 h: 99.5 ± 0.5%
  Stability (% ± SD) Mouse serum 24 h: 98.1 ± 0.4%
  degradation: less than 5%
[4]
  Stability (% ± SD) PBS 1 h: 97.6 ± 1.1%
  Stability (% ± SD) PBS 4 h: 97.3 ± 0.4%
  Stability (% ± SD) PBS 24 h: 94.9 ± 0.6%
  degradation: less than 5%
[5]; 1 h p.i.
  Biodistribution Bone: 1,80 ± 0,44 %ID/g
  Biodistribution Blood: 0,38 ± 0,08 %ID/g
  Biodistribution Cecum: 0,36 ± 0,01 %ID/g
  Biodistribution Colon: 0,19 ± 0,05 %ID/g
  Biodistribution Heart: 0,15 ± 0,04 %ID/g
  Biodistribution Kidneys: 2,46 ± 0,83 %ID/g
  Biodistribution Liver: 2,32 ± 0,43 %ID/g
  Biodistribution Lungs: 0,33 ± 0,08 %ID/g
  Biodistribution Muscle: 0,19 ± 0,03 %ID/g
  Biodistribution Pancreas: 0,25 ± 0,02 %ID/g
  Biodistribution Salivary glands: 0,56 ± 0,08 %ID/g
  Biodistribution Small intestines: 0,33 ± 0,34 %ID/g
  Biodistribution Stomach: 0,33 ± 0,32 %ID/g
  Biodistribution Tumor HT1080-WT: 0,50 ± 0,11 %ID/g
  Biodistribution Tumor HT1080-huFAP: 6,44 ± 1,09 %ID/g
[5]; 4 h p.i.
  Biodistribution Bone: 1,27 ± 0,24 %ID/g
  Biodistribution Blood: 0,22 ± 0,07 %ID/g
  Biodistribution Cecum: 0,32 ± 0,08 %ID/g
  Biodistribution Colon: 0,14 ± 0,03 %ID/g
  Biodistribution Heart: 0,10 ± 0,03 %ID/g
  Biodistribution Kidneys: 1,11 ± 0,21 %ID/g
  Biodistribution Liver: 2,87 ± 1,18 %ID/g
  Biodistribution Lungs: 0,15 ± 0,03 %ID/g
  Biodistribution Muscle: 0,16 ± 0,06 %ID/g
  Biodistribution Pancreas: 0,18 ± 0,06 %ID/g
  Biodistribution Salivary glands: 0,41 ± 0,14 %ID/g
  Biodistribution Small intestines: 0,12 ± 0,04 %ID/g
  Biodistribution Stomach: 0,11 ± 0,04 %ID/g
  Biodistribution Tumor HT1080-WT: 0,36 ± 0,11 %ID/g
  Biodistribution Tumor HT1080-huFAP: 5,92 ± 1,63 %ID/g
  Biodistribution GI Tract: 0,17 ± 0,05 %ID/g
[5]; 24 h p.i.
  Biodistribution Bone: 0,19 ± 0,01 %ID/g
  Biodistribution Blood: 0,01 ± 0,00 %ID/g
  Biodistribution Cecum: 0,03 ± 0,00 %ID/g
  Biodistribution Colon: 0,02 ± 0,01 %ID/g
  Biodistribution Heart: 0,01 ± 0,00 %ID/g
  Biodistribution Liver: 1,67 ± 1,07 %ID/g
  Biodistribution Lungs: 0,01 ± 0,00 %ID/g
  Biodistribution Muscle: 0,01 ± 0,00 %ID/g
  Biodistribution Pancreas: 0,01 ± 0,00 %ID/g
  Biodistribution Salivary glands: 0,02 ± 0,00 %ID/g
  Biodistribution Small intestines: 0,02 ± 0,00 %ID/g
  Biodistribution Stomach: 0,02 ± 0,01 %ID/g
  Biodistribution Tumor HT1080-WT: 0,06 ± 0,01 %ID/g
  Biodistribution GI Tract: 0,02 ± 0,00 %ID/g
